Drawing on PubChem BioAssay AID484 (The Scripps Research Institute Molecular Screening Center, 2006), this text covers IC50 for eleven compounds.

For the assay, the target named is Sphingosine 1-phosphate receptor 3 (Homo sapiens) (UniProt Q99500). Put plainly: blockade of S1P-driven S1P3 signaling – cell-based, dose response (AID 484). Conditions: S1P3-expressing cells, antagonist inhibition of S1P response.

Activity calls are given as the source filed them. No rule for the calls is given here. Bounds are passed on as bounds.

Sequence of Sphingosine 1-phosphate receptor 3 (Homo sapiens) (Q99500 whole entry, looked up): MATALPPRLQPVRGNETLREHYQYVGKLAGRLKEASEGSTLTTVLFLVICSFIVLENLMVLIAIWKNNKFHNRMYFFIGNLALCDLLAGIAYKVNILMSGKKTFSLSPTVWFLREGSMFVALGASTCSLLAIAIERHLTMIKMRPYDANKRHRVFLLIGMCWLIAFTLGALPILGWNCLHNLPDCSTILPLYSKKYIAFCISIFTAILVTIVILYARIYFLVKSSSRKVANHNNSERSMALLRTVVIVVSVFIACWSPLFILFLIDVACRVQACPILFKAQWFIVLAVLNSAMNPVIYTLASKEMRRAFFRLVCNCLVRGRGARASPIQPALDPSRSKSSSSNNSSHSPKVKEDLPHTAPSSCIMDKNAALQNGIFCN

One may read the IC50 as the concentration that inhibits the measured activity by half. Turning to `COc1ccc(CC2C(=O)NC(=O)N(c3ccccc3)C2=O)c(OC)c1` (stereo unspecified), the IC50 was > 49.8 µM (inactive).

Regarding `Cc1ccc(S(=O)(=O)N2CC(=NO)C2)cc1`, the IC50 is > 49.8 µM (inactive).

`CC1(C)CC(=O)CC(=Nc2ccc(C(=O)O)cc2)C1`: the IC50 is > 49.8 µM (inactive).

In the case of `COC(=O)C1=C(N)Oc2cc(N(C)C)ccc2C1c1ccccc1OC` (stereo unspecified), the IC50 is > 16.6 µM (inactive).

Regarding `CN1CCN(C(=O)OC2c3nccnc3C(=O)N2c2ccc(Cl)cn2)CC1` (stereo unspecified), the IC50 is > 49.8 µM (inactive).

On to `CC(=O)C1=C(C)Nc2ncnn2C1c1ccc(Cl)cc1` (stereo unspecified), for which the IC50 is > 49.8 µM (inactive).

In the case of `COc1cccc(N2C(=O)C(CC(=O)Nc3ccc(F)cc3)N(C3CCCCC3)C2=O)c1` (stereo unspecified), the IC50 is > 49.8 µM (inactive).

In the case of `COc1ccc(OC)c(C2C(C(C)=O)=C(O)C(=O)N2CCC(=O)O)c1` (stereo unspecified), the IC50 was > 49.8 µM (inactive).

As to `N#CC1=C(N)Oc2cc3c(cc2C1c1ccc(Cl)cc1)OCO3` (stereo unspecified), the IC50 result is “inactive”.

Regarding `COC(=O)C1=C(N)Oc2cc(C)n(C)c(=O)c2C1c1ccc(Cl)cc1` (stereo unspecified), the IC50 is > 49.8 µM (inactive).

Take `O/C(=C\Sc1nnc(Cc2ccccc2)o1)c1ccc(Br)cc1`: the IC50 is > 49.8 µM (inactive).
